Results on 3 molecules are retold here after US11214590B2, “Photoresponsive nucleotide analog capable of photocrosslinking in visible light region” (JAPAN ADVANCED INSTITUTE OF SCIENCE AND TECHNOLOGY, priority 2017, dated 2022).

The test system of assay [1] is nucleic acids. The note with it: irradiation with light having 350 nm; cited from earlier work.
Assay [2] relates to cODN. As to the kind of experiment: Photocrosslinking test with SPCX, UPLC analysis. Type of assay: biochemical. On the procedure:
The experiment was carried out as described below using the following ODN (^SPCX) and cODN:
10 μM of ODN (^SPCX) and 10 μM of cODN were dissolved in a 50 mM cacodylic acid buffer (pH 7.4) containing 100 mM of NaCl, and then heated at 90° C. for 1 minute, and then cooled at 4° C. Irradiation with light having 450 nm (LED) was carried out at 4° C. Analysis was then carried out by UPLC. The analysis conditions for UPLC are as follows. The measurement was carried out at a measurement wavelength of 260 nm and at a flow rate of 0.2 mL/min, using a mixed solution of ammonium formate and acetonitrile in which the initial conditions were 99% of ammonium formate and […], and 85% of ammonium formate and 15% of acetonitrile at the end of the analysis (10 minutes).

Take `O=c1ccc2cc3ccoc3cc2o1` [psoralen]: the “time required for photoreaction” value in assay [1] was “several hours”.

Take 5'-TGCA^SPCXCCGT-3' [ODN (^SPCX)]: in assay [2] (450 nm (LED), 4° C., 10 μM ODN and 10 μM cODN), the “progress of photocrosslinking reaction (UPLC peaks)” value was “progress of the photocrosslinking reaction was confirmed”. In the case of `OC[C@H]1O[C@@H](n2c3ccccc3c3cc4ccc(=S)oc4cc32)CC1O` (stereo partly shown) [^SPCX], in assay [2] (irradiation with light having 450 nm), the “photoreactivity compared with pyranocarbazole (PCX)” value is recorded as “higher photoreactivity”. Moreover, the “light irradiation time giving photocrosslinking” value in assay [2] (irradiation with light having 450 nm, 4° C.) was 10 s.
